Source: patent US20240115667A1 (priority 2020, published 2024)
Where two headings read alike, the source gives them in different places.

What was measured:
SARS-CoV-2 [1] = type: cell-based
SARS-CoV-2 [2] = type: cell-based; conditions: diphenhydramine 40 μg/ml, lactoferrin 400 μg/ml; MOI 0.01; 48 h supernatant
SARS-CoV-2 [3] = tested on: SARS-CoV-2
SARS-CoV-2 [4] = conditions: for EC50, inhibition of SARS-CoV-2 induced cytotoxicity: Vero E6, MOI 0.2, LDH release
SARS-CoV-2 [5] = experiment: microbe, parasite or virus in culture; conditions: Severe acute respiratory syndrome coronavirus 2, Vero C1008, read-out: EC50, inhibition of SARS-CoV-2 induced cytotoxicity, diphenhydramine with 400 μg/ml of lactoferrin

SMILES: CN(C)CCOC(c1ccccc1)c1ccccc1 [Diphenhydramine]
- Reduction in N-protein RNA (SARS-CoV-2 [1]): 32.2%
- Reduction of infectious SARS-CoV-2 particle release compared to untreated H23-hACE2 cells (SARS-CoV-2 [2]): −1 log
- Inhibition of SARS-CoV-2 infection in vitro (SARS-CoV-2 [3]): inhibited SARS-CoV-2 infection when administered alone
- Reduction of the diphenhydramine EC50 by presence of LFN (SARS-CoV-2 [3]): 3 times
- Decrease of SARS-CoV-2 induced cytotoxicity (SARS-CoV-2 [3]; 5 μg/mL DPH alone): unable to decrease SARS-CoV-2 induced cytotoxicity
- Decrease of diphenhydramine EC50 (SARS-CoV-2 [4]; co-administration of 400 μg/ml of lactoferrin): 55.5%
- EC50, inhibition of SARS-CoV-2 induced cytotoxicity (SARS-CoV-2 [4]; diphenhydramine alone): 122 µg/mL
- EC50, inhibition of SARS-CoV-2 induced cytotoxicity (SARS-CoV-2 [4]; diphenhydramine with 400 μg/ml of lactoferrin): 54.25 µg/mL
- EC50 (SARS-CoV-2 [5]; Vero E6, MOI 0.2): 186 µM
- EC50 (SARS-CoV-2 [5]; Vero E6, MOI 0.2, LDH release): 54.2 µg/mL
